Measurements taken from publication PMC12876990, “Targeting secreted PLA2 interactions with EGFR and vimentin to arrest prostate tumour growth” (Cell Death & Disease, 2025).
“Also recorded” adds a separate entry of the source. Square brackets hold non-standard residues; d marks the D form. Peptide text beside a SMILES is read from it. 2Nal = N[C@@H](Cc1ccc2ccccc2c1)C(=O)O

Legend:
Format in all cases: in vivo, male Sprague Dawley rats
[1] = 28-day repeated dose oral toxicity study (OECD 407): overall toxicity, mortality
Description: Potential toxicity of c2 was evaluated with a 28-day repeated dose oral toxicity study (OECD 407) in male Sprague Dawley rats, with a recovery period. Animals (n = 10 per group) were treated with vehicle (1% carboxymethylcellulose in distilled water), c2 at 1 mg/kg or at 20 mg/kg every three days for 28 days. Animals were sacrificed on day 29 and blood and tissues were taken for further analysis. Two recovery groups treated concomitantly with the main study (n = 5, vehicle of 20 mg/kg c2) were monitored for a further 14-day treatment-free period, sacrificed on Day 43 and blood and tissues taken for analysis. (Data available on request).
2.8.4. Repeated dose toxicity
Repeated do se toxicity is the adver se effects o ccurring within a short time of several repeated administrations of a test item over a defined period.
The test item is the article that is the subject of the study.
Vehicle is any agent, which serves as a carrier used to mix, disperse, or solubilize the test item or reference item to facilitate the administration/application to the test system.
2.9. Principle of the test method
The test item suspension or vehicle was administered orally by gavage every three days for 28 days to three groups of male rat s at two do se le vels (low - 1 and high - 20 mg/kg) to as ses s toxicity. Two vehicle control groups were dosed with the vehicle. A recovery group was included to investigate reversibility of any toxicity and persistence or delayed occurrence of […]
Daily clinical obs ervations were performed. Weekly detailed clinical examination s were performed on all animals. Functional observations were performed in the last week of treatment.
Body weights were monitored weekly throughout the study. Feed intake was measured weekly.
Gross necropsy was conducted in all animals th at died or were killed during the study. Full blood analysis and detailed histopathology was performed on conclusion of the main study.
All tissues and carcasse s were placed in 10% formalin and retained for a period of 6 months. […]
3.1. Regulatory references
The study was conducted according to the OECD Guidelines for the Testing of Chemical s, No.407 - Repeated Dose 28-Day Oral Toxicity Study in Rodents. [Adopted: 3 October […]
3.1.2. Good Laboratory Practice
This study was conducted in accordance with the Organization of Economic Cooperation and Development (OECD) Principles of Good Laboratory Practice (as revised in 1997) ENV/MC/CHEM (98) 17. The study was performed in accordance with the agreed protocol and with ICP Firefly Pty Ltd Standard Operating Procedures (SOPs).
3.1.3. Animal Welfare Act compliance
The experimental protocol was approved by the ICP Firefly Animal Ethics Committee, and […]
Regulation 2005 and the Code of Practice under t hat Regulation. It was granted Approval […]
The Sponsor provided a Certificate of Analysis for the test item, which is attached a s an appendix to the report (Appendix A Certificate of Analysis). […]
3.4.1. Justification for species selection
The Specific Pathogen Free [SPF] male Sprague Dawley rat was selected since it is widely accepted and recognised by international guidelines as an appropriate experimental model […]
3.4.2. Species, strain source and housing
A total of 40 young adult Spe cific Pathogen Fr ee Mal e Sprague D awley rats weighing between 189 and 212 grams the b eginning of the experiment were used for the study. The animals were obtained from Animal Resources Ce ntre (ARC), WA, Australia. […]

[2] = 28-day oral toxicity study: body weights
Description: 3.6. Procedure for test item administration
intragastric cannula attached to a 3 mL syringe.
3.7. Observation of animals
groups: Day 29; recovery groups: Day 43).
(§1) (Appendix C Study Data Spreadsheets).
report (Appendix C Study Data Spreadsheets). […]

[3] = 28-day oral toxicity study: gross necropsy and organ weights; details: for Heart weight on Necropsy: n = 10, mean ± SD
Description: The observations were recorded in the form of a sp readsheet and attached as an app endix to the report (Appendix C Study Data Spreadsheets). […]
Haematology and Biochemistry). […]
as §1
Following sacrifice by intraperitoneal injection of sodium pentobarbitone a gros s necrop sy wa s performed. This included determination of the wet weight of the liver, kidneys, adrenals, testes, spleen, thymus, heart, epididymis, prostate + semi nal vesicle s with coagulating glands as whole […]
and brain. […]
Tissues and carcas ses were placed in 10% formalin. The tissues to be processed for histopathological examinations were fixed for at least 48 hours prior to cassette preparation. […]
Slides were […]
evaluated for histology change s under light microscopy at a magnification of 100 to 1000 times.
Individual histopathology results and a summar y are attached a s an app endix to the report (Appendix E Histopathology).
3.14. Statistical analyses
Clinical observations, detailed clinical observations, functional observations, blood and urine analyses and histopathology were summarised by descriptive analysis.
Statistical analyses, consisting of unpaired t-tests, were performed on measured variables: percentage body weight gain s, food consumption and organ weights as a percentage of body weight. A significance level of P < 0.05 was used for all tests.

[4] = Day 43, Gr 5 recovery, 20 mg/kg

## CC(C)C[C@@H]1NC(=O)[C@H](Cc2ccc3ccccc3c2)NC(=O)[C@H](CCCNC(=N)N)NC(=O)[C@H](Cc2ccc3ccccc3c2)NC(=O)[C@H](CO)NC1=O [c2, cyclo-((2-Nal)-Leu-Ser-(2-Nal)-Arg)] (cyclo([2Nal]LS[2Nal]R))
[1]; 0.1 mg/kg vs 40 mg/kg
  effective concentration relative to the maximum observed dosage with no toxicity: 400 times
[1]; 1 and 20 mg/kg
  urinalysis and blood analysis: no test item related effects
[1]; 1 and 20 mg/kg po every three days over 28 days
  toxicity (all measures): no observable toxicity; also recorded: no toxic effects
[1]; 1 and 20 mg/kg, main and recovery study
  mortality related to the treatment: No mortalities
[1]; male, Sprague Dawley, rat, in vivo, po, Appendix 1, read-out: maximum observed dosage with no toxicity
  NOAEL at 672 h: 40 mg/kg
[2]; 4-week observation period, Gr 2, 1 mg/kg
  percentage body weight gain: 55.4 ± 8.84%
[2]; 28-day and 42-day experimental period
  body weight gains vs vehicle control: comparable
[2]; Day 1, Gr 2, 1 mg/kg
  Mean body weight: 261 ± 14.0 g
[2]; Day 1, Grs 3 & 5, 20 mg/kg
  Mean body weight: 257 ± 11.3 g
[2]; Day 8, Gr 2, 1 mg/kg
  Mean body weight: 312 ± 15.3 g
[2]; Day 8, Grs 3 & 5, 20 mg/kg
  Mean body weight: 312 ± 14.1 g
[2]; Day 15, Gr 2, 1 mg/kg
  Mean body weight: 356 ± 22.3 g
[2]; Day 15, Grs 3 & 5, 20 mg/kg
  Mean body weight: 354 ± 20.8 g
[2]; Day 22, Gr 2, 1 mg/kg
  Mean body weight: 387 ± 24.9 g
[2]; Day 22, Grs 3 & 5, 20 mg/kg
  Mean body weight: 392 ± 24.5 g
[2]; Day 28, Gr 2, 1 mg/kg
  Mean body weight: 406 ± 31.0 g
[2]; Day 28, Grs 3 & 5, 20 mg/kg
  Mean body weight: 414 ± 27.3 g
[2]; Day 29 after overnight fasting, Gr 2, 1 mg/kg
  Mean body weight: 395 ± 28.0 g
[2]; Day 29 after overnight fasting, Gr 3, 20 mg/kg
  Mean body weight: 395 ± 31.5 g
[2]; Day 36, Gr 5 recovery, 20 mg/kg
  Mean body weight: 458 ± 12.0 g
[2]; Day 42, Gr 5 recovery, 20 mg/kg
  Mean body weight: 480 ± 11.6 g
[2]; Day 43 after overnight fasting, Gr 5 recovery, 20 mg/kg
  Mean body weight: 460 ± 12.3 g
[2]; Week 1, Gr 2, 1 mg/kg
  body weight gain: 19.6 ± 2.49%
[3]; 1 mg/kg
  Heart weight (% body weight): 0.31 ± 0.026 % body weight
  Heart weight on Necropsy: 1.211 ± 0.1348 g
[3]; 20 mg/kg
  Heart weight (% body weight): 0.34 ± 0.025 % body weight
  Heart weight on Necropsy: 1.322 ± 0.1050 g
[3]; Day 29, Gr 2, 1 mg/kg
  Organ weight: Adrenals: 0.0454 ± 0.00783 g
  Organ weight: Spleen: 0.8031 ± 0.0637 g
  effect on organ weights as a percentage of body weight: did not have any effect
  macroscopic changes at necropsy: No gross abnormalities
[3]; Day 29, Gr 3, 20 mg/kg
  Organ weight: Adrenals: 0.0473 ± 0.00889 g
  effect on organ weights as a percentage of body weight: did not have any effect
  macroscopic changes at necropsy: No gross abnormalities
[3]; [4]
  Organ weight (% body weight): Adrenals: 0.0097 ± 0.00158%
  Organ weight: Adrenals: 0.0443 ± 0.0061 g
  effect on organ weights as a percentage of body weight: did not have any effect
  macroscopic changes at necropsy: No gross abnormalities
